{"source": "PubChem BioAssay (NCI)", "assay_in_all_cases": "inhibition of tumour cell growth, NCI panel, 48 h", "key": {"NCI-H460 lung": {"tested_on": "NCI-H460 lung"}, "NCI-H522 lung": {"tested_on": "NCI-H522 lung"}, "NCI/ADR-RES ovarian": {"tested_on": "NCI/ADR-RES ovarian"}, "OVCAR-3 ovarian": {"tested_on": "OVCAR-3 ovarian"}, "OVCAR-4 ovarian": {"tested_on": "OVCAR-4 ovarian"}, "OVCAR-5 ovarian": {"tested_on": "OVCAR-5 ovarian"}, "OVCAR-8 ovarian": {"tested_on": "OVCAR-8 ovarian"}, "PC-3 prostate": {"tested_on": "PC-3 prostate"}, "RPMI-8226 leukemia": {"tested_on": "RPMI-8226 leukemia"}, "RXF 393 renal": {"tested_on": "RXF 393 renal"}, "SF-268 CNS": {"tested_on": "SF-268 CNS"}, "SF-295 CNS": {"tested_on": "SF-295 CNS"}, "SF-539 CNS": {"tested_on": "SF-539 CNS"}, "SK-MEL-2 melanoma": {"tested_on": "SK-MEL-2 melanoma"}, "SK-MEL-28 melanoma": {"tested_on": "SK-MEL-28 melanoma"}, "SK-MEL-5 melanoma": {"tested_on": "SK-MEL-5 melanoma"}, "SK-OV-3 ovarian": {"tested_on": "SK-OV-3 ovarian"}, "SN12C renal": {"tested_on": "SN12C renal"}, "SNB-19 CNS": {"tested_on": "SNB-19 CNS"}, "SNB-75 CNS": {"tested_on": "SNB-75 CNS"}, "SW-620 colon": {"tested_on": "SW-620 colon"}, "T-47D breast": {"tested_on": "T-47D breast"}, "TK-10 renal": {"tested_on": "TK-10 renal"}, "U251 CNS": {"tested_on": "U251 CNS"}, "UACC-257 melanoma": {"tested_on": "UACC-257 melanoma"}, "UACC-62 melanoma": {"tested_on": "UACC-62 melanoma"}, "UO-31 renal": {"tested_on": "UO-31 renal"}}, "note": "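48-hour exposure; five concentrations; linearly interpolated endpoints. Here, GI50 denotes the concentration required for 50% inhibition of growth. The concentration for full growth arrest is given as TGI.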"}
{"compound": "COc1cc2c3c(n(CCCNCCCCN)c(=O)c2cc1OC)-c1cc2c(cc1C3=O)OCO2", "values": [{"measurement": "GI50", "setting": "NCI-H460 lung", "value": "< 0.041", "unit": "µM"}, {"measurement": "TGI", "setting": "NCI-H460 lung", "value": 7.38, "unit": "µM"}, {"measurement": "GI50", "setting": "NCI-H522 lung", "value": 5.64, "unit": "µM"}, {"measurement": "TGI", "setting": "NCI-H522 lung", "value": "> 100", "unit": "µM"}, {"measurement": "GI50", "setting": "NCI/ADR-RES ovarian", "value": 17.3, "unit": "µM"}, {"measurement": "TGI", "setting": "NCI/ADR-RES ovarian", "value": "> 90.8", "unit": "µM"}, {"measurement": "GI50", "setting": "OVCAR-3 ovarian", "value": 2.77, "unit": "µM"}, {"measurement": "TGI", "setting": "OVCAR-3 ovarian", "value": 14.1, "unit": "µM"}, {"measurement": "GI50", "setting": "OVCAR-4 ovarian", "value": 7.31, "unit": "µM"}, {"measurement": "TGI", "setting": "OVCAR-4 ovarian", "value": 29.9, "unit": "µM"}, {"measurement": "GI50", "setting": "OVCAR-5 ovarian", "value": 13.5, "unit": "µM"}, {"measurement": "TGI", "setting": "OVCAR-5 ovarian", "value": 41, "unit": "µM"}, {"measurement": "GI50", "setting": "OVCAR-8 ovarian", "value": 1.91, "unit": "µM"}, {"measurement": "TGI", "setting": "OVCAR-8 ovarian", "value": 8.6, "unit": "µM"}, {"measurement": "GI50", "setting": "PC-3 prostate", "value": 4.51, "unit": "µM"}, {"measurement": "TGI", "setting": "PC-3 prostate", "value": 26, "unit": "µM"}, {"measurement": "GI50", "setting": "RPMI-8226 leukemia", "value": 0.355, "unit": "µM"}, {"measurement": "TGI", "setting": "RPMI-8226 leukemia", "value": 13.1, "unit": "µM"}, {"measurement": "GI50", "setting": "RXF 393 renal", "value": 0.301, "unit": "µM"}, {"measurement": "TGI", "setting": "RXF 393 renal", "value": 11.4, "unit": "µM"}, {"measurement": "GI50", "setting": "SF-268 CNS", "value": 3.1, "unit": "µM"}, {"measurement": "TGI", "setting": "SF-268 CNS", "value": 10.3, "unit": "µM"}, {"measurement": "GI50", "setting": "SF-295 CNS", "value": 0.169, "unit": "µM"}, {"measurement": "TGI", "setting": "SF-295 CNS", "value": 16.5, "unit": "µM"}, {"measurement": "GI50", "setting": "SF-539 CNS", "value": 0.191, "unit": "µM"}, {"measurement": "TGI", "setting": "SF-539 CNS", "value": 2.74, "unit": "µM"}, {"measurement": "GI50", "setting": "SK-MEL-2 melanoma", "value": 4.86, "unit": "µM"}, {"measurement": "TGI", "setting": "SK-MEL-2 melanoma", "value": 16.4, "unit": "µM"}, {"measurement": "GI50", "setting": "SK-MEL-28 melanoma", "value": 4.49, "unit": "µM"}, {"measurement": "TGI", "setting": "SK-MEL-28 melanoma", "value": "> 54.2", "unit": "µM"}, {"measurement": "GI50", "setting": "SK-MEL-5 melanoma", "value": 2.95, "unit": "µM"}, {"measurement": "TGI", "setting": "SK-MEL-5 melanoma", "value": 19.2, "unit": "µM"}, {"measurement": "GI50", "setting": "SK-OV-3 ovarian", "value": 9.15, "unit": "µM"}, {"measurement": "TGI", "setting": "SK-OV-3 ovarian", "value": "> 46.6", "unit": "µM"}, {"measurement": "GI50", "setting": "SN12C renal", "value": 0.373, "unit": "µM"}, {"measurement": "TGI", "setting": "SN12C renal", "value": 5.89, "unit": "µM"}, {"measurement": "GI50", "setting": "SNB-19 CNS", "value": 2.65, "unit": "µM"}, {"measurement": "TGI", "setting": "SNB-19 CNS", "value": 18.8, "unit": "µM"}, {"measurement": "GI50", "setting": "SNB-75 CNS", "value": 10.7, "unit": "µM"}, {"measurement": "TGI", "setting": "SNB-75 CNS", "value": 32.2, "unit": "µM"}, {"measurement": "GI50", "setting": "SW-620 colon", "value": 1.4, "unit": "µM"}, {"measurement": "TGI", "setting": "SW-620 colon", "value": 27.3, "unit": "µM"}, {"measurement": "GI50", "setting": "T-47D breast", "value": 3.11, "unit": "µM"}, {"measurement": "TGI", "setting": "T-47D breast", "value": 27.1, "unit": "µM"}, {"measurement": "GI50", "setting": "TK-10 renal", "value": 0.773, "unit": "µM"}, {"measurement": "TGI", "setting": "TK-10 renal", "value": 10.1, "unit": "µM"}, {"measurement": "GI50", "setting": "U251 CNS", "value": 0.234, "unit": "µM"}, {"measurement": "TGI", "setting": "U251 CNS", "value": 6.54, "unit": "µM"}, {"measurement": "GI50", "setting": "UACC-257 melanoma", "value": 16.8, "unit": "µM"}, {"measurement": "TGI", "setting": "UACC-257 melanoma", "value": 54.7, "unit": "µM"}, {"measurement": "GI50", "setting": "UACC-62 melanoma", "value": 2.1, "unit": "µM"}, {"measurement": "TGI", "setting": "UACC-62 melanoma", "value": 11.3, "unit": "µM"}, {"measurement": "GI50", "setting": "UO-31 renal", "value": 7.39, "unit": "µM"}, {"measurement": "TGI", "setting": "UO-31 renal", "value": "> 58.5", "unit": "µM"}]}
